Calls of active or inactive are those of the source. The calls are words filed in the database; no cut-off is given here.
Columns and labels:
[1] = molecular target: T1, Programmed cell death 1 ligand 1 (Homo sapiens, UniProt Q9NZQ7); assay: Antagonist activity at human PDL1 assessed as inhibition of human PD1 interaction with human PDL1 by ELISA
[2] = molecular target: T1, Programmed cell death 1 ligand 1; assay: Antagonist activity at PDL1 overexpressing in IFN-gamma pretreated human LoVo cells assessed as restoration of human Jurkat T cell activation by measuring induction of IL-2 production at 10 ug/ml incubated for 24 hrs by ELISA; conditions: filed as antagonist, dose 10.0 µg/ml
CT26 [3] = assay: Antitumor activity against mouse CT26 cells xenografted in BALB/c mouse assessed as reduction in tumor growth at 10 mg/kg, ip administered for 7 days and measured on day 7 by caliper analysis; format: functional, organism-based; conditions: time 7.0 day
[4] = Toxicity in BALB/c mouse xenografted with mouse CT26 cells assessed as reduction in body weight at 10 mg/kg, ip administered for 7 days and measured on day 7; format: organism-based; conditions: in vivo, 168 h, time 7 day
CT26 [5] = assay: Antitumor activity against mouse CT26 cells assessed as reduction in cell viability at 10 to 100 ug/ml incubated for 24 to 72 hrs by MTT assay; format: functional, cell-based; conditions: dose 10-100 µg/ml, time 24-72 hrs
[6] = Toxicity in BALB/c mouse xenografted with mouse CT26 cells assessed as effect on kidney damage at 10 mg/kg, ip administered for 7 days and measured on day 7 by hematoxylin and eosin staining based assay; format: organism-based; conditions: in vivo, 168 h, time 7 day
[7] = Toxicity in BALB/c mouse xenografted with mouse CT26 cells assessed as effect on spleen damage at 10 mg/kg, ip administered for 7 days and measured on day 7 by hematoxylin and eosin staining based assay; format: organism-based; conditions: in vivo, 168 h, time 7 day
[8] = Toxicity in BALB/c mouse xenografted with mouse CT26 cells assessed as effect on liver damage at 10 mg/kg, ip administered for 7 days and measured on day 7 by hematoxylin and eosin staining based assay; format: organism-based; conditions: in vivo, 168 h, time 7 day
[9] = Toxicity in BALB/c mouse xenografted with mouse CT26 cells assessed as GOT level in blood at 10 mg/kg, ip administered for 7 days and measured on day 7 (reference value: 93 +/- 8 U/L); format: organism-based; conditions: in vivo, 168 h, time 7 day
[10] = Toxicity in BALB/c mouse xenografted with mouse CT26 cells assessed as GPT level in blood at 10 mg/kg, ip administered for 7 days and measured on day 7 (reference value: 50 +/- 7 U/L); format: organism-based; conditions: in vivo, 168 h, time 7 day
[11] = Toxicity in BALB/c mouse xenografted with mouse CT26 cells assessed as BUN level in blood at 10 mg/kg, ip administered for 7 days and measured on day 7 (reference value: 76 +/- 5 mg/dl); format: organism-based; conditions: in vivo, 168 h, time 7 day

T1 sequence (Q9NZQ7 whole entry): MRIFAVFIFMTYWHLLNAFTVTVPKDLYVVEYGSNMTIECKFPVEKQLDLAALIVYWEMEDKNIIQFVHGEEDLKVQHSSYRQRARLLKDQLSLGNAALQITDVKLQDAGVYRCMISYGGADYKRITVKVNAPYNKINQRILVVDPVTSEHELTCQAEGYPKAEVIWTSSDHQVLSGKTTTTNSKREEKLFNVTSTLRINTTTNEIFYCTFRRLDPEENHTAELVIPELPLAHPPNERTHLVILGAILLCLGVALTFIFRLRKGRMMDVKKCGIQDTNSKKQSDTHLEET

| Compound | IC50 [1] | IL-2 induction activity [2] | TGI (CT26 [3]) | Activity [4] | Activity (CT26 [5]) | Activity [6] | Activity [7] | Activity [8] | Activity [9] | Activity [10] | Activity [11] |
| --- | --- | --- | --- | --- | --- | --- | --- | --- | --- | --- | --- |
| CC[C@H](C)[C@H](NC(=O)[C@H](C)NC(=O)CN)C(=O)N[C@@H](CO)C(=O)N[C@@H](CC(C)C)C(=O)N[C@@H](C)C(=O)N1CCC[C@H]1C(=O)N[C@@H](CCCCN)C(=O)N[C@@H](CC(C)C)C(=O)N[C@@H](CCC(N)=O)C(=O)N[C@H](C(=O)N[C@@H](CC(N)=O)C(=O)N[C@@H](CCC(=O)O)C(=O)O)[C@@H](C)CC | 5.6 µM | Active | inactive | Non-Toxic | inactive | – | – | – | – | – | – |
| CC[C@H](C)[C@H](NC(=O)[C@H](C)NC(=O)CN)C(=O)N[C@@H](CO)C(=O)N[C@@H](CC(C)C)C(=O)N[C@@H](C)C(=O)N1CCC[C@H]1C(=O)N[C@@H](CCCCN)C(=O)N[C@@H](CC(C)C)C(=O)N[C@@H](CCC(N)=O)C(=O)N[C@H](C(=O)N[C@@H](CC(N)=O)C(=O)N[C@H](CCC(=O)O)C(=O)O)[C@@H](C)CC | 1.56 µM | Active | Active | Non-Toxic | inactive | Non-Toxic | Non-Toxic | Non-Toxic | 82 U/L | 54 U/L | 69 mg/dL |
| H-CGAISLAPKLQINES-OH | 80.7 µM | – | – | – | – | – | – | – | – | – | – |
| H-GAISLAPKLQIND-OH | 4.4 µM | Active | inactive | Non-Toxic | inactive | – | – | – | – | – | – |
| CC[C@H](C)[C@@H]1NC(=O)[C@H](C)NC(=O)CNC(=O)CNC(=O)[C@@H](CCC(=O)O)NC(=O)[C@H](CC(N)=O)NC(=O)[C@H]([C@@H](C)CC)NC(=O)[C@H](CCC(N)=O)NC(=O)[C@H](CC(C)C)NC(=O)[C@H](CCCCN)NC(=O)[C@@H]2CCCN2C(=O)[C@H](C)NC(=O)[C@H](CC(C)C)NC(=O)[C@H](CO)NC1=O | 0.71 µM | Active | Active | Non-Toxic | inactive | Non-Toxic | Non-Toxic | Non-Toxic | 97 U/L | 51 U/L | 81 mg/dL |
| H-CGAISLAPKAQIKES-OH | 19.2 µM | – | – | – | – | – | – | – | – | – | – |
| H-CGAISLAPKLQIKES-OH | 93.5 µM | – | – | – | – | – | – | – | – | – | – |
